Reference: patent EP1156056A1, “5-GLYCOSYLOXY-6-HYDROXYNAPHTHO 2,3-f]QUINOLINE-7,12-DIONE HAVING ANTICANCER ACTIVITIES” (ZAIDAN HOJIN BISEIBUTSU KAGAKU KENKYU KAI, priority 1999, dated 2000)

Test system: all human cancer cells as tested
Assay: Inhibition of proliferation of cancer cells in culture, all human cancer cells as tested
Type: cell-based
Procedure: A culture medium for cancer cells was put into test tubes. To the culture medium in each tube, there was transplanted each of such various mouse cancer cells or human cancer cells as shown in Table 1 below. The cells so transplanted were cultivated under the conditions at 37°C in an air atmosphere containing 5 % CO2. To the medium containing the cancer cells so cultivated, there was added said Compounds A, B, D, E or F of this invention at different concentrations, as the test compound. […] As the comparative compound, adriamycin now clinically used was tested to repeat the test in the same way.
Namely, they are mouse colon cancer (colon 26), mouse B-cell lymphoma (LB32T), mouse lymphoma (L-1210), human cervical cancer (HeLa), human acute promyeloleukemia (HL60), human prostatic cancer (PC3), human pudendal squamous cell carcinoma (A431), human pulmonary carcinoma (PC6), human mastocarcinoma (MCF7), human esophageal carcinoma (TT), human prostatic cancer (LNcap) and human colon cancer (DLD-1). […]

COc1c2c(c3cccnc3c1O[C@@H]1O[C@@H](C)[C@@H](O)[C@@H](O)[C@H]1F)C(=O)c1ccccc1C2=O [5-(2,6-dideoxy-2-fluoro-α-L-talopyranosyloxy)-6-methoxy-naphtho[2,3-f]-quinoline-7,12-dione]
IC50: < 100 µg/mL
anticancer activity: does not exhibit any appreciable anticancer activity
